Results published in patent US12215389B2, “Compositions for detecting epigenetic modifications” (EXACT SCIENCES CORPORATION, priority 2007, dated 2025).

Key:
[1] = test system: methylated gene promoters in FFPE tissue DNA; experiment: Real-time MSP on colon tissue samples; set-up: species or system human; details: for Specificity (%) / Sensitivity (%): 50 cases (adenoma + carcinoma) vs 39 controls, tissue
Protocol: Real-time MSP was applied on a 7900HT fast real-time PCR system (Applied Biosystems). 2.4 μl of the modified DNA (equivalent to 2.5 μg unconverted DNA) was added to a PCR mix (total volume 12 μl) containing buffer (16.6 mM (NH4)2SO4, 67 mM Tris (pH 8.8), 6.7 mM MgCl2, 10 mM β-mercaptoethanol), dNTPs (5 mM), forward primer (6 ng), reverse primer (18 ng), molecular beacon (0.16 μM), BSA (0.1 μg), and Jumpstart DNA Taq polymerase (0.4 units; Sigma Aldrich). Cycle program used was as follows: 5 minutes 95° C., followed by 45 cycles of 30 seconds 95° C., 30 seconds 57° C. (51° C. for APC), and 30 seconds 72° C., followed by 5 minutes 72° C. A standard curve (2×106—20 copies) was included to determine copy numbers of unknown samples by interpolation of their Ct values to the standard curve.
Marker selection in colon tissue: Based on re-expression, 224 different gene assays representing 145 gene promotors were tested on the Base5 methylation profiling platform (data not shown, see reference 1 for details). The 37 most differentially methylated gene sequences assessing 29 gene promoters were validated on retrospectively collected tumors from 65 colorectal cancer patients (all stages) and 74 distant resection ends (histopathologically normal) using real-time MSP. Several markers reliably detected CRC in those tissue samples (data not shown). The results were confirmed on an independent test set containing 39 tissue controls (non-cancerous), 34 carcinomas and 16 adenomas. Several combinations of the tested markers reliably detected CRC with high specificity and sensitivity.
The ten best performing markers GATA5, GATA4, SFRP1, SFRP2, APC, MGMT, NDRG4, OSMR, JPH3 and ADAM23 were validated with primer sets and beacon probes as specified in Table 24. In addition to the colon test genes, the independent reference gene β-Actin (ACT) was also measured. The ratios between the colon test genes and ACT were calculated, and are the test result of the assay.
Marker candidates identified by re-expression were screened using 37 real-time methylation specific PCR (real-time MSP) assays. These assays were used to assess the methylation status of 29 gene promoters in 293 formalin-fixed paraffin-embedded (FFPE) tissue samples collected from various clinics. Samples included 99 carcinomas of various stages, 16 adenomas, 63 samples from patients with cancer other than CRC (20 breast [stages I-III], 22 bladder [stages I-III], 21 lung [stages I and II]), 39 samples from patients with no evidence of cancer and 76 distant resection ends (histopathologically normal) from CRC patients. These samples were divided into training and independent test sets, and used to select the gene methylation assays best able to discriminate between cancerous and non-cancerous samples. The training set included retrospectively collected tumors from 65 colorectal cancer patients (all stages) and 74 distant resection ends. Using the 10 best performing genes the results were confirmed on an independent test set containing 59 samples from patients with cancer other than CRC, 39 non-cancerous controls and 50 cancer cases (34 carcinomas and 16 adenomas).
The individual performance of the 10 best performing tissue markers OSMR, SFRP1, GATA4, SFRP2, NDRG4, ADAM23, GATA5, MGMT, APC and JPH3 is shown in FIG. 7, when the analytical cut-off was set to give 100% specificity, except for JPH3 where a specificity of 95% was obtained (based on the 39 non-cancerous controls). In addition to the colon test genes, the independent reference gene β-Actin (ACT) was also measured. The ratios between the colon test genes and ACT were calculated, and are the test result of the assay.

[2] = test system: methylated gene promoters in fecal DNA; experiment: Real-time MSP on stool (fecal) DNA; set-up: species or system human; details: fecal samples; for Sens adenoma: 13 samples; for Sens CRC: 15 samples; for Spec: 19 samples
Text: A standardized multicenter screening trial (The Netherlands) was initiated in 2006. In this trial, non symptomatic subjects aged 50 or above are screened with colonoscopy, FOBT and real-time MSP using DNA from stool and blood. In addition, prospectively collected stool samples from multiple centers (Germany and The Netherlands) were used. In these trials, symptomatic patients, attending a Gastroenterology clinic and ultimately diagnosed with CRC, provided a stool sample for use in real-time MSP. From the ongoing trials 147 stool samples were available for the present study. 3 main categories of stool samples were used: 67 samples with no suspicious findings, 58 adenomas and 22 samples from patients covering all stages of CRC, with 90% representing early stage disease.
After defecation in a special bucket, patients added 250 ml of stool homogenization buffer (Amresco, Solon, Ohio, USA) to the sample. Samples were shipped to the laboratory and further processed within 72 hours after defecation. Stool homogenization buffer was added to a ratio 1:7, and the samples were homogenized and aliquoted in portions of 32 ml.
Single aliquots (32 ml containing the equivalent of 4 g of stool) were centrifuged for 5 minutes at 2540 rcf at 20° C. The supernatant was retained and centrifuged a second time (10 minutes at 16500 rcf at 4° C.). 22 ml of the supernatant obtained following the second centrifugation step was incubated with 5 μl Rnase A for 60 minutes at 37° C. Total DNA was then SodiumAcetate (pH 5.2)-isopropanol precipitated and washed with 70% ethanol. The DNA was resuspended in 4 ml 1×TE (pH 7.4). 400 μl 10× buffer (240 mM EDTA (pH=8.0), 750 mM NaC), 400 μl 10% SDS, and 20 μl Proteinase K (20 mg/ml) was added and the samples were incubated at 48° C. overnight at constant shaking (225 RPM). After centrifugation (3000 RCF for 30 seconds at room temperature), 5 ml of Phenol:Chloroform:Isoamylalcohol (25:24:1, v/v:Invitrogen) was added and incubated for 10 minutes at room temperature shaking at 225 RPM and centrifuged for 5 minutes at 3000 RCF. The aqueous layer was transferred to a new tube containing 5 ml of Phenol:Chloroform:Isoamylalcohol. Again, the samples were incubated for 10 minutes at room temperature shaking at 225 RPM and centrifuged for 5 minutes at 3000 RCF at room temperature. The aqueous layer was transferred to a new tube and DNA was precipitated by adding 500 μl 7.5 M Ammonium Acetate, 5 μl glycogen and 10 ml of cold 100% Ethanol (−20° C.), further incubated at −20° C. for at least 1 hour and centrifuged at 15000 RCF for 30 minutes at 4° C. Pellets were washed with 3.5 ml freshly prepared 70% Ethanol and air dried. Pellets were finally resuspended in 2 ml of LoTE pH 8.0 and stored at −80° C., until further processing.
An upscaled DNA modification step was applied to 32 μg of the obtained DNA. 16 Aliquots of 2 μg of DNA were subjected to bisulfite modification in 96-wells format on a pipetting robot (Tecan), using the EZ-96DNA Methylation kit (Zymo Research), according to the manufacturer's protocol. Basically, aliquots of 45 μl were mixed with 5 μl of M-Dilution Buffer and incubated at 37° C. for 15 minutes shaking at 1100 rpm. Then 100 μl of the diluted CT Conversion Reagent was added and samples were incubated at 70° C. for 3 hours, shaking at 1100 rpm in the dark. After conversion, the samples were desalted by incubation on ice for 10 minutes and addition of 400 μl of M-Binding buffer. The samples were loaded on a Zymo-Spin I Column in a collection tube and after centrifugation washed with 200 μl of M-Wash Buffer. 200 μl of M-Desulphonation Buffer was put onto the column and incubated at room temperature for 15 minutes. After centrifugation of the columns, they were washed twice with 200 μl of M-Wash Buffer. Finally, the DNA was washed from the column in 50 μl Tris-HCl 1 mM pH8.0 and stored at −80° C., until further processing.

[3] = test system: NDRG4 or OSMR plasmid material; experiment: Real-time MSP assay designs on plasmid material; set-up: key to Ct / Duplicate Ct / Average Ct: cycle number at which amplification curve crosses threshold; details: for PCR efficiency: from standard curve on plasmid material
Protocol: Plasmid material corresponding to a promoter region of NDRG4 and OSMR gene was used to test additional assay designs. The plasmid for the standard curve was generated as follows: the promoter sequence as defined by the primers is PCR amplified and cloned (using suitable isolated and bisulphite modified cell line DNA). The sequence is verified by sequencing and compared to the published promoter sequence. A serial dilution of either NDRG4 or OSMR plasmid material (2×10^6 to 2×10^1 copies/5 μl) was loaded in duplicate. 5 μl of plasmid dilution or buffer (non template control) was added to a 20 μl PCR mix containing the specified primer and beacon detector sequences as previously described. Results were generated using the SDS 2.2 software from Applied Biosystems with automatic baseline and threshold settings. Data were exported as Ct values (cycle number at which the amplification curves cross the threshold value, set automatically by the software).

[4] = 16 adenoma tissue samples vs 39 controls
[5] = 34 carcinoma tissue samples vs 39 controls
[6] = plasmid standard, quantity 20 copies
[7] = plasmid standard, quantity 200 copies
[8] = plasmid standard, quantity 2000 copies
[9] = plasmid standard, quantity 20000 copies
[10] = plasmid standard, quantity 200000 copies
[11] = plasmid standard, quantity 2000000 copies

Substance	Sensitivity [1, 4]	Specificity [1, 4]	Sensitivity [1, 5]	Specificity [1, 5]	Specificity (%) [1]	Sensitivity (%) ([1]; first cut off ratio)	Sens adenoma [2]	Sens CRC [2]	Spec [2]	PCR efficiency [3]	Average Ct [3, 6]	Ct [3, 6]	Duplicate Ct [3, 6]	Average Ct [3, 7]	Ct [3, 7]	Duplicate Ct [3, 7]	Average Ct [3, 8]	Ct [3, 8]	Duplicate Ct [3, 8]	Average Ct [3, 9]	other results
GATA4 (DNA AGGTTAGTTAGCGTTTTAGGGTC; listed as DNA, chemistry not given here)	88%	100%	74%	100%	100%	78%	15%	73%	100%												Sensitivity (%) ([1]; second cut off ratio, between ( )): (82) %
MGMT (DNA TTTCGACGTTCGTAGGTTTTCGC; listed as DNA, chemistry not given here)	63%	100%	35%	100%	100%	44%															
OSMR (3) (DNA TTTGGTCGGGGTAGGAGTAGC; listed as DNA, chemistry not given here)	88%	100%	88%	100%	100%	88%	8%	67%	100%												
OSMR_3 (DNA TTTGGTCGGGGTAGGAGTAGC; listed as DNA, chemistry not given here)										97.2%	33.98	34.18	33.77	30.59	30.51	30.67	27.19	27.22	27.16	23.90	Ct ([3]; NTC (non template control), quantity 0): 38.13; Ct [3, 9]: 23.97; Duplicate Ct [3, 9]: 23.83; Average Ct [3, 10]: 20.35; Ct [3, 10]: 20.41; Duplicate Ct [3, 10]: 20.29; Average Ct [3, 11]: 17.04; Ct [3, 11]: 16.93; Duplicate Ct [3, 11]: 17.16
OSMR_4 (DNA TTTGGTCGGGGTAGGAGTAGC; listed as DNA, chemistry not given here)										100.8%	34.37	34.63	34.12	31.28	31.37	31.18	28.08	28.24	27.91	24.72	Ct [3, 9]: 24.79; Duplicate Ct [3, 9]: 24.64; Average Ct [3, 10]: 21.31; Ct [3, 10]: 21.56; Duplicate Ct [3, 10]: 21.05; Average Ct [3, 11]: 18.07; Ct [3, 11]: 18.24; Duplicate Ct [3, 11]: 17.90
